From PubChem BioAssay (NCI)
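Five concentrations, 48 hours, 96-well plates. The concentration for 50% growth inhibition is given as GI50. TGI marks complete inhibition of growth.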

Assays:
Experiment in all cases: DTP human tumour cell line panel, 48 h
SK-MEL-2 melanoma = tested on: SK-MEL-2 melanoma
MDA-MB-435 = tested on: MDA-MB-435
MCF7 breast = tested on: MCF7 breast
T-47D breast = tested on: T-47D breast
NCI-H522 lung = tested on: NCI-H522 lung
HCC-2998 colon = tested on: HCC-2998 colon
MDA-MB-231 breast = tested on: MDA-MB-231 breast
OVCAR-3 ovarian = tested on: OVCAR-3 ovarian
786-0 renal = tested on: 786-0 renal
K-562 leukemia = tested on: K-562 leukemia
DU-145 prostate = tested on: DU-145 prostate
RXF 393 renal = tested on: RXF 393 renal
OVCAR-8 ovarian = tested on: OVCAR-8 ovarian
SNB-19 CNS = tested on: SNB-19 CNS
A549 NSCLC = tested on: A549 NSCLC
BT-549 breast = tested on: BT-549 breast
HL-60(TB) leukemia = tested on: HL-60(TB) leukemia
SF-539 CNS = tested on: SF-539 CNS
SK-OV-3 ovarian = tested on: SK-OV-3 ovarian
MOLT-4 leukemia = tested on: MOLT-4 leukemia
CAKI-1 renal = tested on: CAKI-1 renal
HT29 colon = tested on: HT29 colon
ACHN renal = tested on: ACHN renal
OVCAR-5 ovarian = tested on: OVCAR-5 ovarian
U251 CNS = tested on: U251 CNS
SF-295 CNS = tested on: SF-295 CNS
NCI-H23 lung = tested on: NCI-H23 lung
RPMI-8226 leukemia = tested on: RPMI-8226 leukemia
HCT-15 colon = tested on: HCT-15 colon
IGROV1 ovarian = tested on: IGROV1 ovarian
SK-MEL-5 melanoma = tested on: SK-MEL-5 melanoma
MALME-3M melanoma = tested on: MALME-3M melanoma
HCT-116 colon = tested on: HCT-116 colon
CCRF-CEM leukemia = tested on: CCRF-CEM leukemia
NCI/ADR-RES ovarian = tested on: NCI/ADR-RES ovarian
HOP-62 NSCLC = tested on: HOP-62 NSCLC
OVCAR-4 ovarian = tested on: OVCAR-4 ovarian
EKVX NSCLC = tested on: EKVX NSCLC
UACC-257 melanoma = tested on: UACC-257 melanoma
SF-268 CNS = tested on: SF-268 CNS
NCI-H460 lung = tested on: NCI-H460 lung
UACC-62 melanoma = tested on: UACC-62 melanoma
UO-31 renal = tested on: UO-31 renal
PC-3 prostate = tested on: PC-3 prostate
KM12 colon = tested on: KM12 colon
SK-MEL-28 melanoma = tested on: SK-MEL-28 melanoma
SR leukemia = tested on: SR leukemia
SNB-75 CNS = tested on: SNB-75 CNS
TK-10 renal = tested on: TK-10 renal
COLO 205 colon = tested on: COLO 205 colon
LOX IMVI melanoma = tested on: LOX IMVI melanoma
SN12C renal = tested on: SN12C renal
HOP-92 NSCLC = tested on: HOP-92 NSCLC
A498 renal = tested on: A498 renal
M14 melanoma = tested on: M14 melanoma
HS 578T breast = tested on: HS 578T breast
SW-620 colon = tested on: SW-620 colon

Work on `COc1cc(CNCCCCCCN2C(=O)c3cccc4cccc(c34)C2=O)ccc1O` yielded a GI50 (SK-MEL-2 melanoma) of 5.56 µM, a TGI (SK-MEL-2 melanoma) of 18.2 µM and a GI50 (MDA-MB-435) of 3.89 µM. The TGI (MDA-MB-435) was 15.9 µM, the GI50 (MCF7 breast) was 1.74 µM and the TGI (MCF7 breast) was 3.45 µM. It also gave a GI50 (T-47D breast) of 2.93 µM, a TGI (T-47D breast) of 14.3 µM and a GI50 (NCI-H522 lung) of 2.32 µM. The TGI (NCI-H522 lung) was 7.97 µM, the GI50 (HCC-2998 colon) was 11.2 µM and the TGI (HCC-2998 colon) was 24.6 µM. For the same molecule, the GI50 (MDA-MB-231 breast) was 5.84 µM, the TGI (MDA-MB-231 breast) was 19.6 µM and the GI50 (OVCAR-3 ovarian) was 4.11 µM. The TGI (OVCAR-3 ovarian) was 16.6 µM, the GI50 (786-0 renal) was 5.59 µM and the TGI (786-0 renal) was 19.9 µM. It also gave a GI50 (K-562 leukemia) of 2.91 µM, a TGI (K-562 leukemia) of 11 µM and a GI50 (DU-145 prostate) of 6.08 µM. For the same molecule, the TGI (DU-145 prostate) was 18.9 µM, the GI50 (RXF 393 renal) was 2 µM and the TGI (RXF 393 renal) was 9.19 µM. The GI50 (OVCAR-8 ovarian) was 4.73 µM, the TGI (OVCAR-8 ovarian) was 21.3 µM and the GI50 (SNB-19 CNS) was 13.6 µM. For the same molecule, the TGI (SNB-19 CNS) was 28.5 µM, the GI50 (A549 NSCLC) was 5.56 µM and the TGI (A549 NSCLC) was 19.4 µM. The GI50 (BT-549 breast) was 14.5 µM, the TGI (BT-549 breast) was 27.9 µM and the GI50 (HL-60(TB) leukemia) was 3.33 µM. For the same molecule, the TGI (HL-60(TB) leukemia) was 24.3 µM, the GI50 (SF-539 CNS) was 1.82 µM and the TGI (SF-539 CNS) was 3.83 µM. For the same molecule, the GI50 (SK-OV-3 ovarian) was 12.3 µM, the TGI (SK-OV-3 ovarian) was 24.8 µM and the GI50 (MOLT-4 leukemia) was 3.45 µM. The TGI (MOLT-4 leukemia) was 16.2 µM, the GI50 (CAKI-1 renal) was 8.44 µM and the TGI (CAKI-1 renal) was 26.9 µM. For the same molecule, the GI50 (HT29 colon) was 2.62 µM, the TGI (HT29 colon) was 10.1 µM and the GI50 (ACHN renal) was 5.38 µM. For the same molecule, the TGI (ACHN renal) was 18.4 µM, the GI50 (OVCAR-5 ovarian) was 14.1 µM and the TGI (OVCAR-5 ovarian) was 29 µM. The GI50 (U251 CNS) was 4.51 µM, the TGI (U251 CNS) was 17.3 µM and the GI50 (SF-295 CNS) was 9.13 µM. The TGI (SF-295 CNS) was 25.4 µM, the GI50 (NCI-H23 lung) was 10.8 µM and the TGI (NCI-H23 lung) was 25.2 µM. It also gave a GI50 (RPMI-8226 leukemia) of 2.63 µM, a TGI (RPMI-8226 leukemia) of 7.19 µM and a GI50 (HCT-15 colon) of 10.4 µM. It also gave a TGI (HCT-15 colon) of 29.6 µM, a GI50 (IGROV1 ovarian) of 3.72 µM and a TGI (IGROV1 ovarian) of 16.2 µM. It also gave a GI50 (SK-MEL-5 melanoma) of 2 µM, a TGI (SK-MEL-5 melanoma) of 5.92 µM and a GI50 (MALME-3M melanoma) of 2.02 µM. It also gave a TGI (MALME-3M melanoma) of 4.63 µM, a GI50 (HCT-116 colon) of 3.14 µM and a TGI (HCT-116 colon) of 11.2 µM. It also gave a GI50 (CCRF-CEM leukemia) of 3.53 µM, a TGI (CCRF-CEM leukemia) of 29.3 µM and a GI50 (NCI/ADR-RES ovarian) of 10.4 µM. The TGI (NCI/ADR-RES ovarian) was 32.9 µM, the GI50 (HOP-62 NSCLC) was 5.78 µM and the TGI (HOP-62 NSCLC) was 19.1 µM. The GI50 (OVCAR-4 ovarian) was 6.14 µM, the TGI (OVCAR-4 ovarian) was 19.2 µM and the GI50 (EKVX NSCLC) was 13.1 µM. It also gave a TGI (EKVX NSCLC) of 29.8 µM, a GI50 (UACC-257 melanoma) of 2.15 µM and a TGI (UACC-257 melanoma) of 4.49 µM. The GI50 (SF-268 CNS) was 8.4 µM, the TGI (SF-268 CNS) was 24.8 µM and the GI50 (NCI-H460 lung) was 3.71 µM. For the same molecule, the TGI (NCI-H460 lung) was 15.9 µM, the GI50 (UACC-62 melanoma) was 13.1 µM and the TGI (UACC-62 melanoma) was 26.2 µM. The GI50 (UO-31 renal) was 2.65 µM, the TGI (UO-31 renal) was 15.2 µM and the GI50 (PC-3 prostate) was 4.42 µM. It also gave a TGI (PC-3 prostate) of 18.7 µM, a GI50 (KM12 colon) of 5.57 µM and a TGI (KM12 colon) of 18.9 µM. The GI50 (SK-MEL-28 melanoma) was 2.06 µM, the TGI (SK-MEL-28 melanoma) was 4.31 µM and the GI50 (SR leukemia) was 2.36 µM. For the same molecule, the TGI (SR leukemia) was 7.8 µM, the GI50 (SNB-75 CNS) was 10.5 µM and the TGI (SNB-75 CNS) was 22.4 µM. It also gave a GI50 (TK-10 renal) of 10.1 µM, a TGI (TK-10 renal) of 24.8 µM and a GI50 (COLO 205 colon) of 2.54 µM. It also gave a TGI (COLO 205 colon) of 6.62 µM, a GI50 (LOX IMVI melanoma) of 1.86 µM and a TGI (LOX IMVI melanoma) of 3.68 µM. It also gave a GI50 (SN12C renal) of 10.1 µM, a TGI (SN12C renal) of 22 µM and a GI50 (HOP-92 NSCLC) of 2.46 µM. It also gave a TGI (HOP-92 NSCLC) of 17.5 µM, a GI50 (A498 renal) of 0.735 µM and a TGI (A498 renal) of 21 µM. For the same molecule, the GI50 (M14 melanoma) was 1.97 µM, the TGI (M14 melanoma) was 3.85 µM and the GI50 (HS 578T breast) was 10 µM. For the same molecule, the TGI (HS 578T breast) was 37.4 µM, the GI50 (SW-620 colon) was 4.1 µM and the TGI (SW-620 colon) was 17.2 µM.
